Data on 26 compounds can be found in US8329755B2, “Methods for treating retroviral infections” (Roche Palo Alto LLC, priority 2004, dated 2012).

Regarding `COc1cc(CC(=O)Nc2ccc(S(N)(=O)=O)cc2)cc(Oc2cc(Cl)cc(C#N)c2)c1` [Compound I-132, 2-[3-(3-Chloro-5-cyano-phenoxy)-5-methoxy-phenyl]-N-(4-sulfamoyl-phenyl)-acetamide], the melting point was 184.1 to 185.5 °C.
Turning to `Cc1cc(OCCCS(N)(=O)=O)ccc1NC(=O)Cc1ccc(Cl)c(Oc2cc(Cl)ccc2Br)c1` [Compound I-3, 2-[3-(2-Bromo-5-chloro-phenoxy)-4-chloro-phenyl]-N-[2-methyl-4-(3-sulfamoyl-propoxy)-phenyl]-acetamide], the melting point was in the range of 190.1 to 192.2 °C.
The same measure for `Cc1cc(C(=O)CN2CCOCC2)ccc1NC(=O)Cc1ccc(C)c(Oc2cc(Cl)cc(C#N)c2)c1.O=C(O)C(F)(F)F`: 110.3 to 110.5 °C; for `Cc1ccc(CC(=O)Nc2ccc(S(N)(=O)=O)cc2Cl)cc1Oc1cc(C#N)cc(C#N)c1` [Compound I-44, N-(2-Chloro-4-sulfamoyl-phenyl)-2-[3-(3,5-dicyano-phenoxy)-4-methyl-phenyl]-acetamide]: 209.9 to 211.5 °C.
The same measure for `COc1ccc(CC(=O)Nc2ccc(S(N)(=O)=O)cc2)cc1Oc1cc(Cl)cc(C#N)c1` [Compound I-57, 2-[3-(3-Chloro-5-cyano-phenoxy)-4-methoxy-phenyl]-N-(4-sulfamoyl-phenyl)-acetamide]: 218.3 to 221.4 °C; for `Cc1cc(CC(=O)Nc2ccc(S(N)(=O)=O)cc2)cc(C(=O)c2ccc(Cl)cc2)c1` [Compound I-254, 2-[3-(4-Chloro-benzoyl)-5-methyl-phenyl]-N-(4-sulfamoyl-phenyl)-acetamide]: 260.9 to 263.3 °C; for `Cc1ccc(C#N)cc1C(=O)c1cc(CC(=O)Nc2ccccc2Cl)ccc1C` [Compound I-267, N-(2-Chloro-phenyl)-2-[3-(5-cyano-2-methyl-benzoyl)-4-methyl-phenyl]-acetamide]: 129.4 to 131.6 °C.
The figure for `Cc1cc(NC(=O)Cc2ccc(C)c(Oc3cc(Cl)cc(C#N)c3)c2)n(C)n1` [Compound I-226, 2-[3-(3-Chloro-5-cyano-phenoxy)-4-methyl-phenyl]-N-(2,5-dimethyl-2H-pyrazol-3-yl)-acetamide] is 155.6 to 159 °C; for `Cc1cc(OCC(=O)O)ccc1NC(=O)Cc1ccc(C)c(Oc2cc(Cl)cc(C#N)c2)c1` [Compound I-234, (4-{2-[3-(3-Chloro-5-cyano-phenoxy)-4-methyl-phenyl]-acetylamino}-3-methyl-phenoxy)-acetic acid] it is 174.8 to 176.4 °C; for `Cc1ccc(CC(=O)Nc2ccc(S(N)(=O)=O)cc2Cl)cc1Oc1cc(Cl)cc(C#N)c1` [Compound I-123, 2-[3-(3-Chloro-5-cyano-phenoxy)-4-methyl-phenyl]-N-(2-chloro-4-sulfamoyl-phenyl)-acetamide] it is 194 to 194.9 °C.
Regarding `O=C(Cc1cc2c(c(C(=O)c3ccc(Cl)cc3)c1)OCC2)Nc1ccccc1Cl` [Compound I-240, 2-[7-(4-Chloro-benzoyl)-2,3-dihydro-benzofuran-5-yl]-N-(2-chloro-phenyl)-acetamide], the melting point fell in the range of 141.1 to 144.9 °C.
For the compound `CCc1ccc(CC(=O)Nc2ccc(S(N)(=O)=O)cc2Cl)c(F)c1Oc1cc(C#N)cc(C(F)F)c1` [Compound I-179, N-(2-Chloro-4-sulfamoyl-phenyl)-2-[3-(3-cyano-5-difluoromethyl-phenoxy)-4-ethyl-2-fluoro-phenyl]-acetamide], the melting point lay within 239.6 to 240.7 °C.
The same measure for `CCc1ccc(CC(=O)Nc2ccc(S(N)(=O)=O)cc2C)cc1Oc1cc(Br)cc(F)c1Cl` [Compound I-40, 2-[3-(5-Bromo-2-chloro-3-fluoro-phenoxy)-4-ethyl-phenyl]-N-(2-methyl-4-sulfamoyl-phenyl)-acetamide]: 207 to 209.9 °C; for `Cc1cc(S(N)(=O)=O)ccc1NC(=O)Cc1ccc(Cl)c(Oc2cc(C#N)cc(C#N)c2)c1F` [Compound I-32, 2-[4-Chloro-3-(3,5-dicyano-phenoxy)-2-fluoro-phenyl]-N-(2-methyl-4-sulfamoyl-phenyl)-acetamide]: 248.4 to 250.8 °C.
As to `Cc1cc(CC(=O)Nc2ccc(S(N)(=O)=O)cc2)cc(C(=O)c2ccccc2Cl)c1` [Compound I-263, 2-[3-(2-Chloro-benzoyl)-5-methyl-phenyl]-N-(4-sulfamoyl-phenyl)-acetamide], the melting point lay in the range of 165 to 167 °C.
As to `COc1ccc(CC(=O)Nc2ccccc2Cl)cc1Oc1cc(Cl)cc(C#N)c1` [Compound I-61, 2-[3-(3-Chloro-5-cyano-phenoxy)-4-methoxy-phenyl]-N-(2-chloro-phenyl)-acetamide], the melting point fell in the range of 175.7 to 178.3 °C.
The same measure for `Cc1cc(S(N)(=O)=O)ccc1NC(=O)Cc1ccc(Cl)c(C(=O)c2cc(Cl)cc(Cl)c2)c1` [Compound I-252, 2-[4-Chloro-3-(3,5-dichloro-benzoyl)-phenyl]-N-(2-methyl-4-sulfamoyl-phenyl)-acetamide]: 263 to 264.4 °C; for `Cc1cc(S(=O)(=O)NC(=O)[C@@H](N)C(C)C)ccc1NC(=O)Cc1ccc(Cl)c(Oc2cc(Cl)cc(C#N)c2)c1F.Cl`: 169 to 180.3 °C.
The figure for `Cc1ccncc1NC(=O)Cc1ccc(C)c(Oc2cc(Cl)cc(C#N)c2)c1` [Compound I-224, 2-[3-(3-Chloro-5-cyano-phenoxy)-4-methyl-phenyl]-N-(4-methyl-pyridin-3-yl)-acetamide] is 158.6 to 159.1 °C.
The figure for `NS(=O)(=O)c1ccc(NC(=O)Cc2cc3c(c(C(=O)c4ccc(Cl)cc4)c2)OCC3)cc1` [Compound I-241, 2-[7-(4-Chloro-benzoyl)-2,3-dihydro-benzofuran-5-yl]-N-(4-sulfamoyl-phenyl)-acetamide] is 259 to 261 °C; for `Cc1cc(C#N)cc(Oc2c(Cl)ccc(CC(=O)Nc3ccc(S(N)(=O)=O)cc3C)c2F)n1` [Compound I-124, 2-[4-Chloro-3-(4-cyano-6-methyl-pyridin-2-yloxy)-2-fluoro-phenyl]-N-(2-methyl-4-sulfamoyl-phenyl)-acetamide] it is 230.1 to 230.7 °C; for `CCc1ccc(CC(=O)Nc2ccc(S(N)(=O)=O)cc2)cc1Oc1cc(C#N)cc(C(F)F)c1` [Compound I-91, 2-[3-(3-Cyano-5-difluoromethyl-phenoxy)-4-ethyl-phenyl]-N-(4-sulfamoyl-phenyl)-acetamide] it is 188 to 198 °C.
In turn, `CCc1ccc(CC(=O)Nc2ccccc2Cl)cc1Oc1cc(Br)cc(Br)c1Cl` [Compound I-38, N-(2-Chloro-phenyl)-2-[3-(3,5-dibromo-2-chloro-phenoxy)-4-ethyl-phenyl]-acetamide] showed a melting point of 155.5 to 155.8 °C.
`N#Cc1cc(Oc2cc(CC(=O)Nc3ccc(S(N)(=O)=O)cc3Cl)ccc2Cl)cc(C(F)(F)F)c1` [Compound I-90, 2-[4-Chloro-3-(3-cyano-5-trifluoromethyl-phenoxy)-phenyl]-N-(2-chloro-4-sulfamoyl-phenyl)-acetamide] yielded a melting point of 198 to 202 °C.
The figure for `CSCCCNS(=O)(=O)c1ccc(NC(=O)Cc2ccc(C)c(Oc3cc(Cl)cc(C#N)c3)c2)c(C)c1` [Compound I-131, 2-[3-(3-Chloro-5-cyano-phenoxy)-4-methyl-phenyl]-N-[2-methyl-4-(3-methylsulfanyl-propylsulfamoyl)-phenyl]-acetamide] is 159.9 to 162.8 °C.
As to `Cc1cc(S(N)(=O)=O)ccc1NC(=O)Cc1ccc(C)c(Oc2cc(Cl)cc(C#N)c2)c1F` [Compound I-74, 2-[3-(3-Chloro-5-cyano-phenoxy)-2-fluoro-4-methyl-phenyl]-N-(2-methyl-4-sulfamoyl-phenyl)-acetamide], the melting point lay within 230 to 232.2 °C.

For orientation: melting point means the temperature of the solid-liquid transition.
